Article PMC9919861, “Homoleptic Complexes of Heterocyclic Curcuminoids with Mg(II) and Cu(II): First Conformationally Heteroleptic Case, Crystal Structures, and Biological Properties” (Molecules, 2023)
Like-named read-outs stand apart in the source and are kept apart here.

Legend:
[1] = test system: K562 (human chronic myelogenous leukemia); test: Cytotoxicity, sulforhodamine B (SRB) microculture assay; type: cell-based; details: for inhibition at 25 µM: read-out: % of Inhibition (cytotoxic screening)
Protocol: (§1) The cytotoxicity of all compounds was tested against six cancer cell lines: U251 (human glioblastoma cell line), PC-3 (human prostate adenocarcinoma), K562 (human chronic myelogenous leukemia), HCT-15 (human colon adenocarcinoma), MCF-7 (human mammary adenocarcinoma), and SKLU-1 (human lung adenocarcinoma). Cell lines were supplied by the U.S. National Cancer Institute (NCI). The cell lines were cultured in an RPMI-1640 medium supplemented with 10% fetal bovine serum, […] L-glutamine, 10,000 units/mL penicillin G sodium, 10,000 µg/mL streptomycin sulfate, 25 µg/mL amphotericin B (Invitrogen/Gibco™, Thermo Fisher Scientific, Waltham, MA, USA), and 1% non-essential amino acids (Gibco). They were maintained at 37 °C in a humidified atmosphere with 5% CO2. […] The human tumor cytotoxicity was determined using the protein-binding dye sulforhodamine B (SRB) in a microculture assay to measure cell growth, as described in the protocols established by the NCI [39, 40, 41].

[2] = test system: SKLU-1 (human lung adenocarcinoma); test: as above; type: cell-based; details: for inhibition at 25 µM: SK-LU-1, 25 μM, read-out: % of Inhibition (cytotoxic screening)
Protocol: as §1

[3] = test system: PC-3 (human prostate adenocarcinoma); test: as above; type: cell-based; details: for inhibition at 25 µM: Homo sapiens, read-out: % of Inhibition (cytotoxic screening)
Protocol: as §1

[4] = test system: U251 (human glioblastoma cell line); test: as above; type: cell-based; details: for inhibition at 25 µM: U-251, 25 μM, read-out: % of Inhibition (cytotoxic screening)
Protocol: as §1

[5] = test system: MCF-7 (human mammary adenocarcinoma); test: as above; type: cell-based; details: for inhibition at 25 µM: MCF7, 25 μM, read-out: % of Inhibition (cytotoxic screening)
Protocol: as §1

[6] = test system: HCT-15 (human colon adenocarcinoma); test: as above; type: cell-based; details: for inhibition at 25 µM: read-out: % of Inhibition (cytotoxic screening)
Protocol: as §1

[7] = Cytotoxicity towards healthy cell line; type: cell-based, monkey; details: monkey, COS-7 kidney cells; COS7; 25 μM; read-out: % of Inhibition (cytotoxic screening)
[8] = test system: lipid peroxidation in rat brain homogenate; test: Inhibition of lipid peroxidation (TBARS) in rat brain homogenate, FeSO4-induced; type: biochemical; details: for Inhibition (%) of lipid peroxidation / TBARS / IC50: mean ± SEM, n = 3; for IC50: rat brain homogenate, TBARS
Protocol: Adult male Wistar rats (200–250 g) were provided by the Instituto de Fisiología Celular, Universidad Nacional Autónoma de México (UNAM). The procedures and care of animals were conducted in conformity with the Mexican Official Norm for Animal Care and Handling NOM-062-ZOO-1999. They were maintained at 23 ± 2 °C on a 12/12 h light-dark cycle with ad libitum access to food and water.
Animal sacrifice was carried out avoiding unnecessary pain. The rats were sacrificed with CO2. The cerebral tissue (whole brain) was rapidly dissected and homogenized in phosphate-buffered saline (PBS) solution (0.2 g of KCl, 0.2 g of KH2PO4, 8 g of NaCl, and 2.16 g of NaHPO4.7H2O/L, pH adjusted to 7.4) as described elsewhere to produce a 1/10 (w/v) homogenate. The homogenate was centrifuged at 800 rcf (relative centrifugal field) for 10 min. The supernatant protein content was measured using Folin and Ciocalteu’s phenol reagent and adjusted with PBS at 2.666 mg of protein/mL.
As an index of lipid peroxidation, TBARS levels were measured using rat brain homogenates according to the method described by Ng and co-workers, with some modifications. A supernatant (375 µL) was added with 50 µL of 20 µM EDTA and 25 µL of each sample concentration dissolved in DMSO (25 µL of DMSO for the control group) and incubated at 37 °C for 30 min. The lipid peroxidation was started adding 50 µL of freshly prepared 100 µM FeSO4 solution (final concentration 10 µM) and incubated at 37 °C for 1h. The TBARS measurements were obtained as described by Ohkawa and co-workers, with some modifications. To each tube 500 µL of TBA reagent (0.5% 2-thiobarbituric acid in 0.05 N NaOH and 30% trichloroacetic acid, in 1:1 ratio) was added and the final suspension was cooled on ice for 10 min, centrifuged at 13,400 rcf for 5 min and heated at 80 °C in a water bath for 30 min. After cooling at room temperature, the absorbance of 200 µL of supernatant was measured at λ = 540 nm in a Microplate Reader Synergy/HT BIOTEK Instrument, Inc., Winooski, VT, USA. The concentration of TBARS was calculated by interpolation on a standard curve of tetra-methoxypropane (TMP) as a precursor of MDA [38]. Results are expressed as n moles of TBARS per mg of protein. The inhibition ratio (IR [%]) was calculated using the formula IR = (C − E) × 100/C, where C is the control absorbance and E is the sample absorbance. Butylated hydroxytoluene (BHT) and α tocopherol were used as positive standards. All data are presented as mean ± standard error (SEM). The data were analyzed by one-way analysis of variance (ANOVA) followed by Dunnett’s test for comparison against a control. Values of p ≤ 0.05 (*) and p ≤ 0.01 (**) were considered statistically significant.

[9] = test system: healthy monkey kidney cell line (COS-7); test: Cytotoxicity towards healthy cell line; type: cell-based; details: COS7
[10] = concentration 1 (unit not given)
[11] = concentration 10 (unit not given)
[12] = concentration 100 (unit not given)

Row | Compound | inhibition at 25 µM ([1]; Homo sapiens, 25 μM) [%] | inhibition at 25 µM ([2]; Homo sapiens) [%] | inhibition at 25 µM ([3]; 25 μM) [%] | inhibition at 25 µM ([4]; Homo sapiens) [%] | inhibition at 25 µM ([5]; Homo sapiens) [%] | inhibition at 25 µM ([6]; Homo sapiens, 25 μM) [%] | inhibition at 25 µM [7] [%] | % of Inhibition (lipoperoxidation screening) [8, 10] [%] | % of Inhibition (lipoperoxidation screening) [8, 11] [%] | % of Inhibition (lipoperoxidation screening) [8, 12] [%] | % of Inhibition (cytotoxic screening) ([1]; 25 μM) [%] | % of Inhibition (cytotoxic screening) ([2]; 25 μM) [%] | % of Inhibition (cytotoxic screening) ([3]; 25 μM) [%] | % of Inhibition (cytotoxic screening) ([4]; 25 μM) [%] | % of Inhibition (cytotoxic screening) ([5]; 25 μM) [%] | % of Inhibition (cytotoxic screening) ([9]; 25 μM) [%] | further results
1 | COc1cc(/C=C/C(=O)CC(=O)/C=C/c2ccc(O)c(OC)c2)ccc1O [Curc, Curcumin] | 80.1 | 94.5 | 94.4 | 67.1 | 82.4 | 80 | 71.6 | – | – | – | – | – | – | – | – | – | –
2 | Cn1cccc1/C=C/C(=O)/C=C(O)/C=C/c1cccn1C [N-methyl-pyrCurc, N-methylpyrrolcurcumin] | 65.8 | 100 | 60.4 | 52.8 | 99.9 | 18.1 | 100 | 13.71 | 17.41 | 84.75 | – | – | – | – | – | – | IC50 ([1]; Homo sapiens): 12.9 ± 1 µM; IC50 ([2]; Homo sapiens, SK-LU-1): 13 ± 1.9 µM; IC50 ([4]; Homo sapiens, U-251): 25.8 ± 2.7 µM; IC50 ([5]; Homo sapiens, MCF7): 27.3 ± 4.3 µM; IC50 ([6]; Homo sapiens): 22.4 ± 2.4 µM
3 | Cn1cccc1/C=C/C(=O)C=C([O-])/C=C/c1cccn1C.Cn1cccc1/C=C/C(=O)C=C([O-])/C=C/c1cccn1C.[Mg+2] [N-methyl-pyrCurc-Mg] | – | – | – | – | – | – | – | −4.22 | 12.24 | 69.70 | – | – | – | – | – | – | % of Inhibition (cytotoxic screening) ([1]; 12.5 μM): 28.8%; % of Inhibition (cytotoxic screening) ([2]; 12.5 μM): 18.1%; % of Inhibition (cytotoxic screening) ([3]; 12.5 μM): 1.4%; % of Inhibition (cytotoxic screening) ([4]; 12.5 μM): 19.5%; % of Inhibition (cytotoxic screening) ([5]; 12.5 μM): 35.7%; % of Inhibition (cytotoxic screening) ([6]; 12.5 μM): 15.8%; % of Inhibition (cytotoxic screening) ([9]; 12.5 μM): 23.4%
4 | O=C(C=C([O-])/C=C/c1cccs1)/C=C/c1cccs1.O=C(C=C([O-])/C=C/c1cccs1)/C=C/c1cccs1.[Cu+2] [ThiopheneCurc-Cu] | – | – | – | – | – | – | – | 5.67 | 51.00 | 53.96 | 84.4 | 91.0 | 63.6 | 58.2 | 57.9 | 0 | Inhibition (%) of lipid peroxidation ([8]; 3.16 μM): 12.51 ± 3.57%; TBARS ([8]; 3.16 μM): 4.665 ± 0.144 nmol/mg prot.; Inhibition (%) of lipid peroxidation ([8]; 5.62 μM): 31.7 ± 2.33%; TBARS ([8]; 5.62 μM): 3.651 ± 0.200 nmol/mg prot.; Inhibition (%) of lipid peroxidation ([8]; 10 μM): 49.46 ± 1.96%; TBARS ([8]; 10 μM): 2.693 ± 0.029 nmol/mg prot.; Inhibition (%) of lipid peroxidation ([8]; 17.78 μM): 57.25 ± 1.19%; TBARS ([8]; 17.78 μM): 2.280 ± 0.052 nmol/mg prot.; Inhibition (%) of lipid peroxidation ([8]; 31.62 μM): 55.9 ± 1.51%; TBARS ([8]; 31.62 μM): 2.351 ± 0.046 nmol/mg prot.; Inhibition (%) of lipid peroxidation ([8]; 56.23 μM): 58.14 ± 2.66%; TBARS ([8]; 56.23 μM): 2.225 ± 0.055 nmol/mg prot.; IC50 [8]: 10.3 ± 0.59 µM; IC50 [1]: 38.6 ± 8.1 µM
5 | O=C(/C=C(O)/C=C/c1cccs1)/C=C/c1cccs1 [ThiopheneCurc, Thiophenecurcumin] | 4.4 | 0 | 14.8 | 0 | 13.4 | 0 | 0 | 0.23 | 25.43 | 51.90 | – | – | – | – | – | – | Inhibition (%) of lipid peroxidation ([8]; 10 μM): 17.68 ± 0.97%; TBARS ([8]; 10 μM): 4.398 ± 0.177 nmol/mg prot.; Inhibition (%) of lipid peroxidation ([8]; 17.78 μM): 40.94 ± 0.36%; TBARS ([8]; 17.78 μM): 3.157 ± 0.139 nmol/mg prot.; Inhibition (%) of lipid peroxidation ([8]; 31.62 μM): 61.81 ± 1.08%; TBARS ([8]; 31.62 μM): 2.042 ± 0.116 nmol/mg prot.; Inhibition (%) of lipid peroxidation ([8]; 56.23 μM): 71.25 ± 1.79%; TBARS ([8]; 56.23 μM): 1.528 ± 0.035 nmol/mg prot.; Inhibition (%) of lipid peroxidation ([8]; 100 μM): 73.06 ± 3.06%; TBARS ([8]; 100 μM): 1.425 ± 0.094 nmol/mg prot.; Inhibition (%) of lipid peroxidation ([8]; 177.83 μM): 66.63 ± 3.83%; TBARS ([8]; 177.83 μM): 1.766 ± 0.119 nmol/mg prot.; IC50 [8]: 22.02 ± 0.15 µM
6 | O=C(C=C([O-])/C=C/c1ccco1)/C=C/c1ccco1.O=C(C=C([O-])/C=C/c1ccco1)/C=C/c1ccco1.[Cu+2] [FuranCurc-Cu] | – | – | – | – | – | – | – | 0.83 | 27.46 | 88.94 | 90.1 | 95.0 | 100 | 100 | 92.8 | 100 | IC50 [2]: 6.5 ± 0.2 µM; IC50 [3]: 3000 ± 100 nM; IC50 [4]: 4 ± 0.3 µM; % of Inhibition (cytotoxic screening) ([6]; 25 μM): 72.4%
7 | Cn1cccc1/C=C/C(=O)C=C([O-])/C=C/c1cccn1C.Cn1cccc1/C=C/C(=O)C=C([O-])/C=C/c1cccn1C.[Cu+2] [N-methyl-pyrCurc-Cu] | – | – | – | – | – | – | – | −7.20 | 38.48 | 71.20 | 74.67 | 100 | 64.99 | 71.62 | 100 | 100 | IC50 [1]: 5.9 ± 1.5 µM; IC50 [2]: 10.3 ± 1 µM; IC50 [4]: 10.6 ± 1 µM; IC50 [5]: 10.8 ± 1.7 µM; IC50 [6]: 12.9 ± 2.1 µM; % of Inhibition (cytotoxic screening) ([6]; 25 μM): 100%
